Results: patent US10246453B2, “Benzenesulfonamide compounds and their use as therapeutic agents” (Xenon Pharmaceuticals Inc., priority 2016, dated 2019)
Where a name gives a salt, the structure may show the parent alone.

Key:
[1] = biological target: NaV1.1 (Homo sapiens (Human), UniProt P35498); test: Sodium Influx Assay (Flux), NaV1.1; assay type: cell-based; settings: Trex HEK293 cells, ANG2 dye; arithmetic mean
[2] = biological target: NaV1.6 (Homo sapiens (Human), UniProt Q9UQD0); test: Sodium Influx Assay (Flux), NaV1.6; settings: read-out: Flux NaV1.6 IC50; Trex HEK293 cells, ANG2 dye; arithmetic mean
[3] = biological target: NaV1.5 (Homo sapiens (Human), UniProt Q14524); test: Sodium Influx Assay (Flux), NaV1.5; settings: read-out: Flux NaV1.5 IC50; Trex HEK293 cells, ANG2 dye; arithmetic mean
Chain of NaV1.5 (Q14524 other isoform, or with tags, fused parts or gaps): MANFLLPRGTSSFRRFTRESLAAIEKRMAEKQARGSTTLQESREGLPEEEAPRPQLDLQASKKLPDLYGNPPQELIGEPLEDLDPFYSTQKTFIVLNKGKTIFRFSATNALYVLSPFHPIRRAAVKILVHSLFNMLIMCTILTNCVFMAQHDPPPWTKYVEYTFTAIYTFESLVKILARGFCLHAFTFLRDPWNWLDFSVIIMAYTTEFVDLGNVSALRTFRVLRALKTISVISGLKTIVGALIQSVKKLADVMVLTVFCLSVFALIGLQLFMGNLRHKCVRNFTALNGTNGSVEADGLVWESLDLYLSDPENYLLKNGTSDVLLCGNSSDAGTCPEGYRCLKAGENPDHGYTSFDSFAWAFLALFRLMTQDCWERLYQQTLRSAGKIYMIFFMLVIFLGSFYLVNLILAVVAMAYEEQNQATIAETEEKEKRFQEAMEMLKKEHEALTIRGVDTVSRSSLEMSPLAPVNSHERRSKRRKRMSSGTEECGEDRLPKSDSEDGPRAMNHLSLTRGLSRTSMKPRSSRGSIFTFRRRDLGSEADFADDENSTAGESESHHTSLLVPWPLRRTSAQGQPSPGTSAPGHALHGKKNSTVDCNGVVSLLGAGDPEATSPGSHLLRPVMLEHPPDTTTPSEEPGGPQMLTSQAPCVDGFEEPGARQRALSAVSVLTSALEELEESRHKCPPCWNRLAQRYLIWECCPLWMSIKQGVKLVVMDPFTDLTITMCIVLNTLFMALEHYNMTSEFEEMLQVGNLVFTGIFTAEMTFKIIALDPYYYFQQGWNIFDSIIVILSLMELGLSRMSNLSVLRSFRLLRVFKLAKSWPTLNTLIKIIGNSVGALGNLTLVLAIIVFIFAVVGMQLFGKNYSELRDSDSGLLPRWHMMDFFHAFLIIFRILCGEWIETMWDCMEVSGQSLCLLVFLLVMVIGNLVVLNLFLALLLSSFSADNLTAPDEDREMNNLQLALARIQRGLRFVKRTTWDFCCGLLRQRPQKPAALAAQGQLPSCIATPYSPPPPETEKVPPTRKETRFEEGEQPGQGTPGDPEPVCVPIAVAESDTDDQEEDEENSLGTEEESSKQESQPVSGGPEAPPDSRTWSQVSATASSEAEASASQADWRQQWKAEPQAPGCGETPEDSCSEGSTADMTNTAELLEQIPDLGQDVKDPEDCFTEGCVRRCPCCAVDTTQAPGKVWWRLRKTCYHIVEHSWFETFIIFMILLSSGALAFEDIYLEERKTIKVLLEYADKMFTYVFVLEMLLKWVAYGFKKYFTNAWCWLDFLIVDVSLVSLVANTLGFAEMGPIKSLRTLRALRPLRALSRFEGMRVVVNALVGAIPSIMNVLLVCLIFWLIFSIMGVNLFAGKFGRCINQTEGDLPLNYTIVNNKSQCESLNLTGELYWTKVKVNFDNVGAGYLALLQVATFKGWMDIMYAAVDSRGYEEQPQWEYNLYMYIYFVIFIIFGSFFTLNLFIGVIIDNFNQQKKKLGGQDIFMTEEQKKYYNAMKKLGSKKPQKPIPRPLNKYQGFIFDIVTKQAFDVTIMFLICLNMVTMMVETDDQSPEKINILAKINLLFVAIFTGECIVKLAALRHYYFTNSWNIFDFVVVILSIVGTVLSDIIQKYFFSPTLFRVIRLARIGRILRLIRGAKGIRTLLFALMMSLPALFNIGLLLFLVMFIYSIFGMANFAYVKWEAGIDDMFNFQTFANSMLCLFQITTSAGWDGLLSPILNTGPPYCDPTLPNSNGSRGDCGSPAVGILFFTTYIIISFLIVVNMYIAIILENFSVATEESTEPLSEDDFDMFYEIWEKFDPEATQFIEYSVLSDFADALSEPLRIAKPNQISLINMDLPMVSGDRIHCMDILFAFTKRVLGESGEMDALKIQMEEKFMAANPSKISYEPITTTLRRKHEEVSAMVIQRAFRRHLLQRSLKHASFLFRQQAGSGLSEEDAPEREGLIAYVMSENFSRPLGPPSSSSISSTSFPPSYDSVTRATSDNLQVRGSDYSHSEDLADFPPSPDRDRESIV

| SMILES | IC50 [1] [µM] | IC50 [2] [µM] | IC50 [3] [µM] |
| --- | --- | --- | --- |
| O=S(=O)(Nc1nccs1)c1ccc(OC2CCN(Cc3ccc(C(F)(F)F)cc3)CC2)c(Cl)c1 [Example 23, 3-chloro-N-(thiazol-2-yl)-4-((1-(4-(trifluoromethyl)benzyl)piperidin-4-yl)oxy)benzenesulfonamide 2,2,2-trifluoroacetate] | > 30 | > 30 | 29.6 |
| Cc1ccc(CN2CCC(Oc3ccc(S(=O)(=O)Nc4nccs4)cc3Cl)CC2)cc1 [Example 24, 3-chloro-N-(thiazol-2-yl)-4-((1-(4-methylbenzyl)piperidin-4-yl)oxy)benzenesulfonamide 2,2,2-trifluoroacetate] | 12.6 | 2.54 | 13.5 |
| CN(c1ccc(S(=O)(=O)Nc2ncns2)cc1Cl)[C@H]1CCN(Cc2cccc(Cl)c2)C1 [Example 30, (S)-3-chloro-4-((1-(3-chlorobenzyl)pyrrolidin-3-yl)(methyl)amino)-N-(1,2,4-thiadiazol-5-yl)benzenesulfonamide] | 7.97 | 0.021 | 18.7 |
| CN(c1ccc(S(=O)(=O)Nc2ncns2)cc1Cl)[C@H]1CCN(Cc2cccc(Cl)c2F)C1 [Example 32, (S)-3-chloro-4-((1-(3-chloro-2-fluorobenzyl)pyrrolidin-3-yl)(methyl)amino)-N-(1,2,4-thiadiazol-5-yl)benzenesulfonamide] | 6.55 | 0.047 | 7.41 |
| Cc1cccc(CN2CC[C@H](N(C)c3ccc(S(=O)(=O)Nc4ncns4)cc3Cl)C2)c1F [Example 34, (S)-3-chloro-4-((1-(2-fluoro-3-methylbenzyl)pyrrolidin-3-yl)(methyl)amino)-N-(1,2,4-thiadiazol-5-yl)benzenesulfonamide 2,2,2-trifluoroacetate] | 19.9 | 0.039 | > 30 |
| Cc1ccc(F)c(CN2CC[C@H](N(C)c3ccc(S(=O)(=O)Nc4ncns4)cc3Cl)C2)c1 [Example 35, (S)-3-chloro-4-((1-(2-fluoro-5-methylbenzyl)pyrrolidin-3-yl)(methyl)amino)-N-(1,2,4-thiadiazol-5-yl)benzenesulfonamide] | 15.9 | 0.021 | > 30 |
| CCN(c1ccc(S(=O)(=O)Nc2ncns2)cc1Cl)[C@H]1CCN(Cc2cccc(C)c2)C1 [Example 37, (S)-3-chloro-4-(ethyl(1-(3-methylbenzyl)pyrrolidin-3-yl)amino)-N-(1,2,4-thiadiazol-5-yl)benzenesulfonamide] | > 30 | 0.195 | > 30 |
| CN(c1cc(F)c(S(=O)(=O)Nc2nccs2)cc1Cl)[C@H]1CCN(Cc2ccccc2)C1 [Example 39, (S)-4-((1-benzylpyrrolidin-3-yl)(methyl)amino)-5-chloro-2-fluoro-N-(thiazol-2-yl)benzenesulfonamide bis(trifluoroacetic acid) salt] | 4.96 | 0.732 | 13.1 |
| C[C@@H](c1ccccc1)N1CC[C@H](N(C)c2ccc(S(=O)(=O)Nc3nccs3)cc2Cl)C1 [Example 42, 3-chloro-4-(methyl((S)-1-((S)-1-phenylethyl)pyrrolidin-3-yl)amino)-N-(thiazol-2-yl)benzenesulfonamide] | 4.38 | 0.155 | 9.11 |
| C[C@H](c1ccccc1)N1CC[C@H](N(C)c2cc(F)c(S(=O)(=O)Nc3cccc(F)n3)cc2Cl)C1 [Example 45, 5-chloro-2-fluoro-N-(6-fluoropyridin-2-yl)-4-(methyl((S)-1-((R)-1-phenylethyl)pyrrolidin-3-yl)amino)benzenesulfonamide 2,2,2-trifluoroacetate] | 11.2 | 1.98 | > 30 |
| COc1ccc(CN2CCC(Oc3ccc(S(=O)(=O)Nc4nccs4)cc3Cl)CC2)cc1 [Example 48, 3-chloro-4-((1-(4-methoxybenzyl)piperidin-4-yl)oxy)-N-(thiazol-2-yl)benzenesulfonamide] | 10.5 | 3.67 | 7.82 |
| O=S(=O)(Nc1nccs1)c1ccc(OC2CCN(C3CCc4ccccc43)CC2)c(Cl)c1 (stereo not drawn) [Example 49, 3-chloro-4-((1-(2,3-dihydro-1H-inden-1-yl)piperidin-4-yl)oxy)-N-(thiazol-2-yl)benzenesulfonamide 2,2,2-trifluoroacetate] | 5.59 | 0.491 | 5.4 |
| O=S(=O)(Nc1nccs1)c1ccc(NC2CN(Cc3ccccc3)C2)c(Cl)c1 [Example 50, 4-((1-benzylazetidin-3-yl)amino)-3-chloro-N-(thiazol-2-yl)benzenesulfonamide 2,2,2-trifluoroacetate] | 4.15 | 1.08 | 5.71 |
| O=S(=O)(Nc1nccs1)c1ccc(OC2CCN(Cc3ccc4ccccc4c3)CC2)c(Cl)c1 [Example 51, 3-chloro-4-((1-(naphthalen-2-ylmethyl)piperidin-4-yl)oxy)-N-(thiazol-2-yl)benzenesulfonamide 2,2,2-trifluoroacetate] | 17.6 | 6.58 | 3.48 |
| CC(c1ccccc1)N1CCC(Oc2cc(F)c(S(=O)(=O)Nc3nccs3)cc2Cl)CC1 (stereo not drawn) [Example 54, 5-chloro-2-fluoro-4-((1-(1-phenylethyl)piperidin-4-yl)oxy)-N-(thiazol-2-yl)benzenesulfonamide] | 9.93 | 0.156 | 16.7 |
| C[C@H](c1ccccc1)N1CCC(Oc2cc(F)c(S(=O)(=O)Nc3nccs3)cc2Cl)CC1 [Example 56, (R)-5-chloro-2-fluoro-4-((1-(1-phenylethyl)piperidin-4-yl)oxy)-N-(thiazol-2-yl)benzenesulfonamide 2,2,2-trifluoroacetate] | 12.5 | 0.392 | 10.1 |
| CC(C)(c1ccccc1)N1CCC(Oc2cc(F)c(S(=O)(=O)Nc3nccs3)cc2Cl)CC1 [Example 60, 5-chloro-2-fluoro-4-((1-(2-phenylpropan-2-yl)piperidin-4-yl)oxy)-N-(thiazol-2-yl)benzenesulfonamide 2,2,2-trifluoroacetate] | 13.3 | 0.452 | 15.9 |
| O=S(=O)(Nc1nccs1)c1ccc(OC2CCN(Cc3ccncc3)CC2)c(Cl)c1 [Example 63, 3-chloro-4-((1-(pyridin-4-ylmethyl)piperidin-4-yl)oxy)-N-(thiazol-2-yl)benzenesulfonamide] | > 30 | 27.7 | > 30 |
| O=S(=O)(Nc1nccs1)c1ccc(OC2CCN(Cc3cccnc3)CC2)c(Cl)c1 [Example 64, 3-chloro-4-((1-(pyridin-3-ylmethyl)piperidin-4-yl)oxy)-N-(thiazol-2-yl)benzenesulfonamide] | > 30 | 5.63 | > 30 |
| O=S(=O)(Nc1nccs1)c1ccc(N[C@@H]2CCN(Cc3cccc(Cl)c3)C2)c(Cl)c1 [Example 69, (R)-3-chloro-4-((1-(3-chlorobenzyl)pyrrolidin-3-yl)amino)-N-(thiazol-2-yl)benzenesulfonamide] | 1.76 | 0.697 | 6.15 |
| Cc1cccc(CN2CC[C@@H](Nc3ccc(S(=O)(=O)Nc4nccs4)cc3Cl)C2)c1 [Example 70, (R)-3-chloro-4-((1-(3-methylbenzyl)pyrrolidin-3-yl)amino)-N-(thiazol-2-yl)benzenesulfonamide] | 3.18 | 0.664 | 4.2 |
